Activity calls are given as the source filed them.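 Rule for the calls: active = compounds whose mean EC50, the dose giving half the maximal reporter activation, is at or below a set limit; inactive = the rest.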
Biological target: CHO-CHOP luciferase reporter, UPR activation, luminescence
Experiment: activators of PERK-eIF2a-CHOP UPR arm, confirmation, CHO-CHOP cells, luciferase luminescence (AID 489024);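 note: compounds added alone to reporter cells with no tunicamycin stress co-treatment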

Structure (SMILES)	EC50
CCc1ccc(-n2c(SCC(=O)c3ccc4c(c3)NC(=O)CO4)nc3ccccc3c2=O)cc1	12.9 µM
COc1ccc(/C=C/C(=O)Oc2ccc(C)cc2)cc1	inactive
O=[N+]([O-])c1ccc(Sc2cccc3cccnc23)c([N+](=O)[O-])c1	> 80 µM (inactive)
Cc1cc(-n2c(C)cc(C(=O)CCl)c2C)no1	7.75 µM
CN1/C(=C\C(=O)COC(=O)c2ccc(O)c(O)c2)C(C)(C)c2ccccc21	6.67 µM
CCOc1cc(/C=N/Nc2cc(C)nc(-n3nc(C)cc3C)n2)ccc1O	13.6 µM
CCOC(=O)C1CCN(Cc2ccc(O)c3ncccc23)CC1	2.74 µM
COc1ccccc1N1CCN(/N=C/c2ccc(O)c(O)c2)CC1	2.36 µM
O=C(N/N=C/c1ccccn1)c1cc(-c2ccc(Br)cc2)nc2ccccc12	2.4 µM
CN1CCN(c2ccc(NC(=O)c3ccc([N+](=O)[O-])o3)cc2Cl)CC1	0.42 µM
Cc1noc2ncnc(Sc3ccc(Cl)cc3)c12	7.1 µM
Cc1cc(C(=O)CCl)c(C)n1CC1COc2ccccc2O1 (stereo unspecified)	8.22 µM
Cc1ccc(-c2cc(NC(=O)CCl)n(-c3ccccc3)n2)cc1	6.42 µM
CCCCCCCCCn1c2c(c(=N)c3c1CCC3)CCC2	> 80 µM (inactive)
CC(=O)c1cccc(NC(=O)CSc2ncc(C(=O)Nc3ccccc3)c(=O)n2C)c1	7.28 µM
O=C1NC(=O)C(=Cc2ccc(-c3ccc(Cl)cc3)o2)C(=O)N1	18.2 µM
Cn1nc([N+](=O)[O-])c(C(C#N)c2ccccn2)c(Cl)c1=O (stereo unspecified)	> 80 µM (inactive)
Fc1ccc(NC(=S)Nc2nccs2)cc1	inactive
Oc1ccc(/C=N/N2CCCCC2)cc1O	inactive
OCCNc1nc(Nc2ccc(Cl)c(Cl)c2)nc2ccccc12	11.7 µM
CC1CCN(Cc2c(C(=O)N/N=C/c3ccc(C(C)(C)C)cc3)nnn2-c2nonc2N)CC1	8.4 µM
Cc1ccc(C(=O)Cn2c(C(=O)/C=C/c3ccccc3)nc3ccccc32)cc1	13.7 µM
Cn1cc(/C=C2\SC(=O)NC2=S)c2ccccc21	> 80 µM (inactive)
Cn1nc(C(F)(F)F)c(/C=N/OC(=O)c2ccccc2)c1SCc1ccccc1Cl	inactive
CC1(C)CC(=O)C(=Cc2cn(-c3ccccc3)nc2-c2ccccc2)C(=O)C1	inactive
COc1cccc(N=Cc2c(O)c3ccccc3oc2=O)c1	8.69 µM

Structure (SMILES)	EC50
O=C(Nc1ccc(NC(=O)c2sc3ccccc3c2Cl)cc1Cl)c1ccco1	inactive
COc1ccc(/C=N/Nc2cc(C)nc(-n3nc(C)cc3C)n2)cc1	10.4 µM
CCCCn1c(/C=N/Nc2nc3ccccc3[nH]2)nc2ccccc21	12.3 µM
O=C(NC1CCCC1)C(c1ccc(F)cc1)N(Cc1ccc(Cl)cc1)C(=O)CCl (stereo unspecified)	7.8 µM
CC[C@@H](C)[C@H](NC(=O)OC(C)(C)C)c1nnc(S(=O)(=O)Cc2cc(C)ccc2C)o1	15.5 µM
Nc1nnnn1/N=C/C(Br)=C/c1ccccc1	2.22 µM
Cc1cc(C)nc(S/C=C/C(=O)c2ccccc2)n1	6.72 µM
CC1=CC(C)(C)Nc2ccc(OC(=O)CN3C(=O)CCC3=O)cc21	9.58 µM
CCc1nnc(NC(=O)c2nc(S(=O)(=O)Cc3ccc(C)cc3)ncc2Cl)s1	> 80 µM (inactive)
CCOC(=O)N1CCN(Cc2ccc(O)c3ncccc23)CC1	16.4 µM
Cc1ccc(-n2nc3cc(C)c(NC(=S)NC(=O)/C=C/c4ccco4)cc3n2)cc1	16.2 µM
CCc1ccc2c(c1)C1(NN=C(c3ccccc3)S1)C(=O)N2 (stereo unspecified)	3.36 µM
CCOc1cccc(C(=O)Nc2cccc(-c3nnc(-c4ccc(C)cc4)o3)c2)c1	> 80 µM (inactive)
O=S1(=O)Nc2c(ccc3cccnc23)-c2ccccc21	3.42 µM
COc1ccc(N2C(=O)/C(=C/c3cccs3)C(=O)NC2=S)cc1	9.09 µM
CCCC[C@@H](C)C[C@@H](C)C(=O)N(C)[C@@H](CC(C)C)C(=O)N[C@H](C(=O)N(C)[C@H](C(=O)N1C[C@@H](O)C[C@H]1C(=O)N1C(=O)C=C[C@@H]1C)C(C)C)C(C)OC(C)=O (stereo partly specified)	10.4 µM
COc1cc(C(Nc2ccccn2)c2ccc3ccc(C)nc3c2O)cc(OC)c1O (stereo unspecified)	6.83 µM
C/C(=N\NC(=O)c1cccc(Br)c1)c1ccccn1	2.36 µM
C/C(=N\NC(=O)C(C)Oc1ccc([N+](=O)[O-])cc1)c1ccccn1 (stereo unspecified)	10.1 µM
COc1ccc2cc(C)c3nnc(SCC(=O)Nc4nc(-c5ccc(F)cc5)cs4)n3c2c1	10.7 µM
Cc1cc(C(=O)CCl)c(C)n1CCc1ccc(F)cc1	7.77 µM
CNC[C@@H](Cc1ccccc1)NC[C@@H](CC1CCCCC1)NCCCc1ccccc1	4.63 µM
Cc1nc(SCC(=O)Nc2ccc(F)cc2)c(C#N)c(C)c1CC(=O)c1ccc(Br)cc1	> 80 µM (inactive)
COc1cc([N+](=O)[O-])cc(/C=N/NC(=O)c2ccc(NC(=O)c3ccc(C)cc3)cc2)c1O	12.3 µM
Cc1nn(Cc2c(Cl)cccc2Cl)c(C)c1NC(=O)c1cn(-c2ccccc2)nc1-c1ccccc1	7.37 µM
O=C(COc1ccc(/C=N/NC(=O)c2cc3ccccc3o2)cc1Br)Nc1ccccc1	3.83 µM

Structure (SMILES)	EC50
COC(=O)c1cc(=O)n(Cc2ccc3c(c2)OCO3)c(=Nc2ccc(F)c(Cl)c2)s1	> 80 µM (inactive)
O=Cc1ccc(O)c2ncccc12	10.3 µM
O=[N+]([O-])c1ccccc1S(=O)(=O)Nc1cccc2cccnc12	7.67 µM
O=[N+]([O-])c1ccc(Sc2nnnn2-c2ccccc2)nc1	> 80 µM (inactive)
Cc1cccc(C)c1NC(=O)C(Cl)C(=O)c1ccccc1 (stereo unspecified)	19.3 µM
Cc1cccc(C)c1NC(=O)c1nc(S(=O)(=O)Cc2ccccc2)ncc1Cl	12.3 µM
S=c1[nH]nc(-c2cc(-c3ccccc3)n[nH]2)n1/N=C/C(Br)=C/c1ccccc1	7.79 µM
O=C(CCN1C(=O)C2C3C=CC(C4CC34)C2C1=O)Oc1cccc2cccnc12 (stereo unspecified)	11.2 µM
Cc1ccc2c(C(=O)CCl)c(C)[nH]c2c1	11.2 µM
O=S(=O)(CCSc1nc2ccccc2s1)c1nc2ccccc2s1	11.6 µM
O=C(Nc1ccc(S(=O)(=O)N2CCOCC2)cc1)c1ccc([N+](=O)[O-])o1	0.98 µM
CN(C)CC(C(=O)c1ccccc1)c1ccccc1 (stereo unspecified)	6.77 µM
CCOc1ccc(NC(=S)NC(=O)/C=C/c2ccc(OC)c(OC)c2)c([N+](=O)[O-])c1	> 80 µM (inactive)
O=C(/C=C\c1ccccc1OC(=O)c1ccccc1F)c1cc2ccccc2o1	14 µM
O=C(Nc1nc(-c2ccccn2)cs1)c1ccc(Cl)s1	6.11 µM
Cc1ccc(S(=O)(=O)Nc2cccc3cccnc23)cc1	4.41 µM
COc1cccc(-n2c(SCC(=O)N3CCc4ccccc43)nnc2-c2c[nH]c3ccccc23)c1	> 80 µM (inactive)
Cc1ccc(NC(=O)c2ccc(N/N=C/c3cccc(O)c3)c([N+](=O)[O-])c2)cc1	8.03 µM
Cc1cc(C)nc(SCc2ccc(C(=O)N/N=C/c3cccc(O)c3O)cc2)n1	10.1 µM
CCOC(=O)c1c2ccc(OCC(=O)N/N=C/c3ccc(C)cc3)cc2n2ccccc12	> 80 µM (inactive)
CS(=O)(=O)Oc1ccc2c(c1)O/C(=C\C=C\c1ccccc1)C2=O	inactive
O=C(C#Cc1cccc([N+](=O)[O-])c1)c1ccccc1	8.96 µM
CCc1ccc(N2C(=O)NC(=O)/C(=C\C=C\c3ccco3)C2=O)cc1	7.33 µM
COC(=O)c1c(NC(=O)CC2Nc3ccccc3NC2=O)sc(C)c1C (stereo unspecified)	inactive
